Experimental data taken from patent US11254690B2, “PTEFb inhibiting macrocyclic compounds” (BAYER AKTIENGESELLSCHAFT, priority 2017, dated 2022).

What was measured:
CDK2/CycE = biological target: T1, CDK2/CycE (Homo sapiens, UniProt P24941); experiment: CDK2/CycE high ATP kinase assay (TR-FRET, 2 mM ATP); format: biochemical; details: Method 2b
T1 construct: GST; purchased ProQinase GmbH (Freiburg, Germany); host or cells: insect cells (Sf9)
Method: 2b. CDK2/CycE High ATP Kinase Assay
CDK2/CycE-inhibitory activity of compounds of the present invention at 2 mM adenosine-tri-phosphate (ATP) was quantified employing the CDK2/CycE TR-FRET (TR-FRET=Time Resolved Fluorescence Energy Transfer) assay as described in the following paragraphs.
Recombinant fusion proteins of GST and human CDK2 and of GST and human CycE, expressed in insect cells (Sf9) and purified by Glutathion-Sepharose affinity chromatography, were purchase from ProQinase GmbH (Freiburg, Germany). As substrate for the kinase reaction biotinylated peptide biotin-Ttds-YISPLKSPYKISEG (C-terminus in amid form) was used which can be purchased e.g. form the company JERINI peptide technologies (Berlin, Germany).
(§1) For the assay 50 nl of a 100 fold concentrated solution of the test compound in DMSO was pipetted into either a black low volume 384 well microtiter plate or a black 1536 well microtiter plate (both Greiner Bio-One, Frickenhausen, Germany), 2 μl of a solution of CDK2/CycE in aqueous assay buffer [50 mM Tris/HCl pH 8.0, 10 mM MgCl2, 1.0 mM dithiothreitol, 0.1 mM sodium ortho-vanadate, 0.01% (v/v) Nonidet-P40 (Sigma)] were added and the mixture was incubated for 15 min at 22° C. to allow pre-binding of the test compounds to the enzyme before the start of the kinase reaction. […] The concentration of CDK2/CycE was adjusted depending of the activity of the enzyme lot and was chosen appropriate to have the assay in the linear range, typical concentrations were about 10 ng/ml. The reaction was stopped by the addition of 3 μl of a solution of TR-FRET detection reagents (0.333 μM streptavidine-XL665 [Cisbio Bioassays, Codolet, France] and 1.67 nM anti-RB(pSer807/pSer811)-antibody from BD Pharmingen [#558389] and 2 nM LANCE EU-W1024 labeled anti-mouse IgG antibody [Perkin-Elmer, product no. AD0077, as an alternative a Terbium-cryptate-labeled anti-mouse IgG antibody from Cisbio Bioassays can be used]) in an aqueous EDTA-solution (167 mM EDTA, 0.2% (w/v) bovine serum albumin in 100 mM HEPES pH 7.5).
(§2) The resulting mixture was incubated 1 h at 22° C. to allow the formation of complex between the phosphorylated biotinylated peptide and the detection reagents. Subsequently the amount of phosphorylated substrate was evaluated by measurement of the resonance energy transfer from the Eu-chelate to the streptavidine-XL. Therefore, the fluorescence emissions at 620 nm and 665 nm after excitation at 350 nm was measured in a TR-FRET reader, e.g. a Pherastar (BMG Labtechnologies, Offenburg, Germany) or a Viewlux (Perkin-Elmer). The ratio of the emissions at 665 nm and at […] was taken as the measure for the amount of phosphorylated substrate. The data were normalised (enzyme reaction without inhibitor=0% inhibition, all other assay components but no enzyme=100% inhibition).

CDK9/CycT1 = biological target: T2, CDK9/CycT1 (Homo sapiens, UniProt P50750); experiment: CDK9/CycT1 high ATP kinase assay (TR-FRET, 2 mM ATP); format: biochemical; details: for IC50: 2 mM ATP, Method 1b, lower limit for IC50s about 1-2 nM; for Selectivity high ATP CDK9 over high ATP CDK2: IC50 (high ATP CDK2)/IC50 (high ATP CDK9): ratio from Methods 1b and 2b, minimal values for IC50s near the assay limit
T2 construct: Recombinant full-length His-tagged human CDK9 and CycT1; His; purchased Life Technologies PV4131; host or cells: insect cells
T2 sequence (P50750 whole entry): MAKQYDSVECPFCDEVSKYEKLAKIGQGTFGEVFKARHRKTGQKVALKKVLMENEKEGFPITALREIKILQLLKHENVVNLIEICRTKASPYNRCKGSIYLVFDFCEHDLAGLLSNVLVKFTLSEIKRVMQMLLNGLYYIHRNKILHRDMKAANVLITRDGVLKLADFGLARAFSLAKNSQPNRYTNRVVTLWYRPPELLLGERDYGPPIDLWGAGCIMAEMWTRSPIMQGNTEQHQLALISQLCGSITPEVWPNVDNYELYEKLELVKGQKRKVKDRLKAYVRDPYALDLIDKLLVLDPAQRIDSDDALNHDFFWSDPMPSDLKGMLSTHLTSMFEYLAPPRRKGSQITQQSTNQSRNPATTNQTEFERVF
T2 sequence (O60563 whole entry partner): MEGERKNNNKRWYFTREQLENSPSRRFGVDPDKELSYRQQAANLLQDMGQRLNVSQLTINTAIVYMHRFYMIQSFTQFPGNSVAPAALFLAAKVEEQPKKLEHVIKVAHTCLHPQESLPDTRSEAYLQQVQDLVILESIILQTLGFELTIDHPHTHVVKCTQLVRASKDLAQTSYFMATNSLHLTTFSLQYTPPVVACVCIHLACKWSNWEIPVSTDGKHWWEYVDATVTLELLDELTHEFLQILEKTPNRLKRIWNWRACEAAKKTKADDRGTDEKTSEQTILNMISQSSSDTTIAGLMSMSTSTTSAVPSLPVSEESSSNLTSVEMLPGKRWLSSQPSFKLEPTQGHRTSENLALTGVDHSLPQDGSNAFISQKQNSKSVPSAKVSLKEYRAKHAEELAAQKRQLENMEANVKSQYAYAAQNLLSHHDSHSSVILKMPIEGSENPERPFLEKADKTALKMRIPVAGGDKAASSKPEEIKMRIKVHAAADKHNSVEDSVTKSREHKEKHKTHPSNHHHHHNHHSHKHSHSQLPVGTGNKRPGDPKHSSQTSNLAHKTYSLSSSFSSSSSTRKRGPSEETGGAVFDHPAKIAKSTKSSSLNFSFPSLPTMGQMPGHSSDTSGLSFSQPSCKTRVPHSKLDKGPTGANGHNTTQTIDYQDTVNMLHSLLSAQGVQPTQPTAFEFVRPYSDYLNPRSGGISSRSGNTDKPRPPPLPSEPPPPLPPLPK
Method: 1b. CDK9/CycT1 High ATP Kinase Assay
CDK9/CycT1-inhibitory activity of compounds of the present invention at a high ATP concentration after preincubation of enzyme and test compounds was quantified employing the CDK9/CycT1 TR-FRET assay as described in the following paragraphs.
Recombinant full-length His-tagged human CDK9 and CycT1, expressed in insect cells and purified by Ni-NTA affinity chromatography, were purchased from Life Technologies (Cat. No PV4131). As substrate for the kinase reaction biotinylated peptide biotin-Ttds-YISPLKSPYKISEG (C-terminus in amide form) was used which can be purchased e.g. form the company JERINI peptide technologies (Berlin, Germany).
as §1, with “CDK9/CycT1” for “CDK2/CycE”, “in the range of 0.5 μg/ml.” for “about 10 ng/ml.”, “(0.33” for “(0.333”, “AD0077])” for “AD0077, as an alternative a Terbium-cryptate-labeled anti-mouse IgG antibody from Cisbio Bioassays can be used])”
as §2

IC50 (CDK2/CycE) [nM]	IC50 (CDK9/CycT1) [nM]	Selectivity high ATP CDK9 over high ATP CDK2: IC50 (high ATP CDK2)/IC50 (high ATP CDK9) (CDK9/CycT1)	Compound
711	4	178	CSCc1cc2nc(c1)OC(C)CCCOc1cc(ccc1F)-c1cc(ncc1F)N2 (single isomer, unassigned) [Example 13, 3,20-difluoro-14-methyl-10-[(methylsulfanyl)methyl]-13,18-dioxa-5,7,24-triazatetracyclo[17.3.1.1^2,6.1^8,12]pentacosa-1(23),2(25),3,5,8(24),9,11,19,21-nonaene]
> 20000	68	>294	CSCc1cc2nc(c1)OC(C)CCCCCOc1cc(ccc1F)-c1cc(ncc1F)N2 (single isomer, unassigned) [Example 24, 3,22-difluoro-14-methyl-10-[(methylsulfanyl)methyl]-13,20-dioxa-5,7,26-triazatetracyclo[19.3.1.1^2,6.1^8,12]heptacosa-1(25),2(27),3,5,8(26),9,11,21,23-nonaene]
6450	4	1613	CSCc1cc2nc(c1)OC(C)CCCOc1cc(ccc1F)-c1cc(ncc1F)N2 (single isomer, unassigned) [Example 12, 3,20-difluoro-14-methyl-10-[(methylsulfanyl)methyl]-13,18-dioxa-5,7,24-triazatetracyclo[17.3.1.1^2,6.1^8,12]pentacosa-1(23),2(25),3,5,8(24),9,11,19,21-nonaene]
12600	23	548	CSCc1cc2nc(c1)OC(C)CCCCOc1cc(ccc1F)-c1cc(ncc1F)N2 (single isomer, unassigned) [Example 20, 3,21-difluoro-14-methyl-10-[(methylsulfanyl)methyl]-13,19-dioxa-5,7,25-triazatetracyclo[18.3.1.1^2,6.1^8,12]hexacosa-1(24),2(26),3,5,8(25),9,11,20,22-nonaene]
> 20000	138	>145	CSCc1cc2nc(c1)OC(C)CCCCOc1cc(ccc1F)-c1cc(ncc1F)N2 (single isomer, unassigned) [Example 19, 3,21-difluoro-14-methyl-10-[(methylsulfanyl)methyl]-13,19-dioxa-5,7,25-triazatetracyclo[18.3.1.1^2,6.1^8,12]hexacosa-1(24),2(26),3,5,8(25),9,11,20,22-nonaene]
> 20000	93	>215	CSCc1cc2nc(c1)OC(C)CCCCCOc1cc(ccc1F)-c1cc(ncc1F)N2 (single isomer, unassigned) [Example 25, 3,22-difluoro-14-methyl-10-[(methylsulfanyl)methyl]-13,20-dioxa-5,7,26-triazatetracyclo[19.3.1.1^2,6.1^8,12]heptacosa-1(25),2(27),3,5,8(26),9,11,21,23-nonaene]
> 20000	67	>298	CSCc1cc2nc(c1)OC(C)CCCCCOc1cc(ccc1F)-c1cc(ncc1F)N2 (racemic) [Example 23, (rac)-3,22-difluoro-14-methyl-10-[(methylsulfanyl)methyl]-13,20-dioxa-5,7,26-triazatetracyclo[19.3.1.1^2,6.1^8,12]heptacosa-1(25),2(27),3,5,8(26),9,11,21,23-nonaene]
> 20000	32	>625	CSCc1cc2nc(c1)OC(C)CCCCOc1cc(ccc1F)-c1cc(ncc1F)N2 (racemic) [Example 18, (rac)-3,21-difluoro-14-methyl-10-[(methylsulfanyl)methyl]-13,19-dioxa-5,7,25-triazatetracyclo[18.3.1.1^2,6.1^8,12]hexacosa-1(24),2(26),3,5,8(25),9,11,20,22-nonaene]
